Source: PMC8900464 (Journal of medicinal chemistry, 2022)

What was measured:
[1] = system: P-AKT (S473), P-PRAS40 (T246), P-S6 (S240/244); experiment: Immunoblotting of P-AKT and downstream signaling in BT474 cells; type: cell-based; details: 24 h
[2] = system: BT474 cells; experiment: Cell colony formation assay; type: cell-based; details: 14 days
[3] = system: T-AKT; experiment: T-AKT degradation in PC3 cells; type: cell-based, human
[4] = Mouse pharmacokinetic study; type: in vivo, mice; details: male, Swiss Albino, plasma, ip, 150 mg/kg
[5] = system: P-PRAS40, P-S6; experiment: Downstream signaling in PC3 cells; details: 1 μM for 24 h, then washout, 24 h post-treatment
[6] = system: PC3 cells; experiment: Cell proliferation assay; type: cell-based, human; details: 5 days
[7] = system: MDA-MB-468 cells; experiment: Cell proliferation assay; type: cell-based; details: 5 days
[8] = system: total AKT (T-AKT); experiment: Immunoblotting of total AKT in BT474 cells; type: cell-based; details: 24 h, western blot; for AKT (T-AKT) degradation: BT474 cells, 1, 5 and 10 μM
[9] = BT474 cells, 1, 5 and 10 μM, P-PRAS40 and P-S6, western blot

Cc1ncsc1-c1ccc(CNC(=O)[C@@H]2C[C@@H](O)CN2C(=O)[C@@H](NC(=O)CCCCCCCCCCCC(=O)N2CCN(CC[C@H](NC(=O)C3(N)CCN(c4ncnc5[nH]ccc45)CC3)c3ccc(Cl)cc3)CC2)C(C)(C)C)cc1 [Compound 21, 4-Amino-N-((S)-1-(4-chlorophenyl)-3-(4-(13-(((S)-1-((2S,4R)-4-hydroxy-2-((4-(4-methylthiazol-5-yl)benzyl)carbamoyl)pyrrolidin-1-yl)-3,3-dimethyl-1-oxobutan-2-yl)amino)-13-oxotridecanoyl)-piperazin-1-yl)propyl)-1-(7H-pyrrolo[2,3-d]pyrimidin-4-yl)-piperidine-4-carboxamide]
downstream signaling inhibition [1, 9]: slightly enhanced downstream signaling inhibition compared to 19 | inhibition of colony formation [2]: highly effective in inhibiting colony formation

NC1(C(=O)N[C@@H](CCN2CCN(C(=O)CCOCCOCCOCCOCCOCCNc3cccc4c3C(=O)N(C3CCC(=O)NC3=O)C4=O)CC2)c2ccc(Cl)cc2)CCN(c2ncnc3[nH]ccc23)CC1 (stereo partly drawn) [Compound 35, 4-Amino-N-((1S)-1-(4-chlorophenyl)-3-(4-(1-((2-(2,6-dioxopiperidin-3-yl)-1,3-dioxoisoindolin-4-yl)amino)-3,6,9,12,15-pentaoxaoctadecan-18-oyl)piperazin-1-yl)propyl)-1-(7H-pyrrolo[2,3-d]-pyrimidin-4-yl)piperidine-4-carboxamide]
inhibition of phosphorylation of ribosomal protein S6 ([1]; BT474 cells, 1, 5 and 10 μM, among 32–38): most effective in inhibiting the phosphorylation of ribosomal protein S6 | AKT protein level after washout ([3]; 1 μM for 24 h, then washout, 24 h post-treatment): rebounded substantially | T-AKT level after washout ([3]; 1 μM for 24 h, then washout, 48 h post-treatment): completely recovered | AUC [4]: 32500 ng·h/mL | Cmax [4]: 8 µM | Tmax [4]: 1 h | downstream signaling inhibition after washout [5]: near fully recovered

CN1C(=O)CCC(N2C(=O)c3cccc(NCCOCCOCCOCCOCCOCCC(=O)N4CCN(CC[C@H](NC(=O)C5(N)CCN(c6ncnc7[nH]ccc67)CC5)c5ccc(Cl)cc5)CC4)c3C2=O)C1=O (stereo partly drawn) [Compound 43, 4-Amino-N-((1S)-1-(4-chlorophenyl)-3-(4-(1-((2-(1-methyl-2,6-dioxopiperidin-3-yl)-1,3-dioxoisoindolin-4-yl)amino)-3,6,9,12,15-pentaoxaoctadecan-18-oyl)piperazin-1-yl)propyl)-1-(7H-pyrrolo-[2,3-d]pyrimidin-4-yl)piperidine-4-carboxamide]
T-AKT protein level ([3]; concentrations up to 10 μM, 24 h): did not reduce the T-AKT protein level | GI50 [6]: inactive | GI50 [7]: inactive

NC1(C(=O)N[C@@H](CCN2CCN(C(=O)CCOCCOCCOCCOCCOCCCc3cccc4c3C(=O)N(C3CCC(=O)NC3=O)C4=O)CC2)c2ccc(Cl)cc2)CCN(c2ncnc3[nH]ccc23)CC1 (some centres unmarked) [Compound 41]
AKT (T-AKT) degradation [8]: did not improve | inhibition of colony formation [2]: did not improve

Cc1ncsc1-c1ccc(CNC(=O)[C@@H]2C[C@@H](O)CN2C(=O)[C@@H](NC(=O)CCCCCC(=O)N2CCN(CC[C@H](NC(=O)C3(N)CCN(c4ncnc5[nH]ccc45)CC3)c3ccc(Cl)cc3)CC2)C(C)(C)C)cc1 [Compound 15, 4-Amino-N-((S)-1-(4-chlorophenyl)-3-(4-(7-(((S)-1-((2S,4R)-4-hydroxy-2-((4-(4-methylthiazol-5-yl)benzyl)carbamoyl)pyrrolidin-1-yl)-3,3-dimethyl-1-oxobutan-2-yl)amino)-7-oxoheptanoyl)-piperazin-1-yl)propyl)-1-(7H-pyrrolo[2,3-d]pyrimidin-4-yl)-piperidine-4-carboxamide]
AKT degradation ([8]; BT474 cells, 5 μM): improved AKT degradation | downstream signaling inhibition ([1]; BT474 cells, 5 μM, western blot): significant downstream signaling inhibition

Cc1ncsc1-c1ccc([C@H](C)NC(=O)[C@@H]2C[C@@H](O)CN2C(=O)[C@@H](NC(=O)CCCCCCCCCC(=O)N2CCN(CC[C@H](NC(=O)C3(N)CCN(c4ncnc5[nH]ccc45)CC3)c3ccc(Cl)cc3)CC2)C(C)(C)C)cc1 [Compound 23, 4-Amino-N-((S)-1-(4-chlorophenyl)-3-(4-(11-(((S)-1-((2S,4R)-4-hydroxy-2-(((S)-1-(4-(4-methylthiazol-5-yl)phenyl)ethyl)carbamoyl)-pyrrolidin-1-yl)-3,3-dimethyl-1-oxobutan-2-yl)amino)-11-oxoundecanoyl)piperazin-1-yl)propyl)-1-(7H-pyrrolo[2,3-d]-pyrimidin-4-yl)piperidine-4-carboxamide]
AKT (T-AKT) degradation [8]: did not show significant difference from 19 | downstream signaling inhibition [1, 9]: did not show significant difference from 19 | inhibition of colony formation [2]: did not show significant difference from 19

NC1(C(=O)N[C@@H](CCN2CCN(C(=O)CCCCNc3cccc4c3C(=O)N(C3CCC(=O)NC3=O)C4=O)CC2)c2ccc(Cl)cc2)CCN(c2ncnc3[nH]ccc23)CC1 (stereo partly drawn) [Compound 27, 4-Amino-N-((1S)-1-(4-chlorophenyl)-3-(4-(5-((2-(2,6-dioxopiperidin-3-yl)-1,3-dioxoisoindolin-4-yl)amino)pentanoyl)piperazin-1-yl)propyl)-1-(7H-pyrrolo[2,3-d]pyrimidin-4-yl)piperidine-4-carboxamide]
AKT (T-AKT) degradation [8]: moderate effectiveness | downstream signaling inhibition [1, 9]: moderate effectiveness

NC1(C(=O)N[C@@H](CCN2CCN(C(=O)CCOCCOCCOCCOCCOCCOc3cccc4c3C(=O)N(C3CCC(=O)NC3=O)C4=O)CC2)c2ccc(Cl)cc2)CCN(c2ncnc3[nH]ccc23)CC1 (stereo partly drawn) [Compound 40, 4-Amino-N-((1S)-1-(4-chlorophenyl)-3-(4-(1-((2-(2,6-dioxopiperidin-3-yl)-1,3-dioxoisoindolin-4-yl)oxy)-3,6,9,12,15-pentaoxaoctadecan-18-oyl)piperazin-1-yl)propyl)-1-(7H-pyrrolo[2,3-d]pyrimidin-4-yl)piperidine-4-carboxamide]
AKT (T-AKT) degradation [8]: did not improve | inhibition of colony formation [2]: did not improve
